The experiment concerns the target MAPKAPK2 (Homo sapiens, UniProt P49137). Put plainly: MK2 Enzymatic Assay. Type of experiment: biochemical. The following applies: 0.5 nM MAPKAPK2, 3 μM ATP, 2 μM Ser/Thr4 peptide, 23° C., values given as concentration bins. The procedure: Briefly, 5 μL of 2× (4 μM) 100% phosphorylation peptide was delivered into the control wells of a 384-well assay plate. 5 μL of 2× (1 nM) MAPKAPK2 and 2× peptide (4 μM) mixture in assay buffer was dispensed to remaining columns of assay plate using Eppendorf electronic multiple channel pipette. The assay plate was incubated for 20 minutes. 5 μL of 2× ATP (6 μM) in assay buffer was dispensed to each well and then the assay plate was lightly centrifuged. The assay plate was incubated for an additional 120 minutes.
5 μL of development reagent A was dispensed to all wells using Eppendorf electronic multiple channel pipette. After incubating the development reaction for 120 min, plates were read on a Perkin Elmer Envision instrument.
Percent phosphorylation was calculated using the following formula:
[formula] Where • C100%=Average Coumarin emission signal of the 100% Phos. Control • C0%=Average Coumarin emission signal of the 0% Phos. Control • F100%=Average Fluorescein emission signal of the 100% Phos. Control • F0%=Average Flurescein emission signal of the 0% Phos. Control

SMILES strings stand for the structures.

In general, IC50 refers to the concentration at which inhibition is half-maximal.

MAPKAPK2, sequence (P49137 whole entry, species assumed): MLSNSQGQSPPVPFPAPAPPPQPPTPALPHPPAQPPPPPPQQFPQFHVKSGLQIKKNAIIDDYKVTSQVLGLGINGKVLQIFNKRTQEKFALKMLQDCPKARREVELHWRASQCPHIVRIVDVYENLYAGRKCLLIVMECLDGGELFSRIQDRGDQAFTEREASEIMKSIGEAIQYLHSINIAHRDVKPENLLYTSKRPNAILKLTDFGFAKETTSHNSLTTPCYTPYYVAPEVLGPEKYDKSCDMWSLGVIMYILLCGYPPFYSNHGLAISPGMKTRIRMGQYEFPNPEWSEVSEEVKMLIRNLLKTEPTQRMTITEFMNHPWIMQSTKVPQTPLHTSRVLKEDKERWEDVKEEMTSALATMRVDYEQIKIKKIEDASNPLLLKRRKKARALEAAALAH

As to `N#Cc1ccc(-c2cc3n(c2)Cc2cc(N4CC[C@H](CN5CCC(O)CC5)C4)ccc2-n2cnnc2-3)cc1` [Compound 111, (R)-4-(7-(3-((4-hydroxypiperidin-1-yl)methyl)pyrrolidin-1-yl)-9H-benzo[e]pyrrolo[1,2-a] [1,2,4]triazolo[3,4-c][1,4]diazepin-12-yl)benzonitrile], the IC50 is < 50 nM.

Take `CN1CC2(CCN(c3ccc4c(c3)Cn3cc(-c5ccc(C#N)cc5)cc3-c3nccn3-4)C2)C1` [Compound 125, 4-(7-(2-methyl-2,6-diazaspiro[3.4]octan-6-yl)-9H-benzo[e]imidazo[2,1-c]pyrrolo[1,2-a][1,4]diazepin-12-yl)benzonitrile]: the IC50 is < 50 nM.

In turn, `CN(C)C[C@H]1CN(c2ccc3c(c2)Cn2cc(-c4ccc(C#N)cc4)cc2-c2nccn2-3)C[C@H]1O` [Compound 128, 4-(7-((3S,4S)-3-((dimethylamino)methyl)-4-hydroxypyrrolidin-1-yl)-9H-benzo[e]imidazo[2,1-c]pyrrolo[1,2-a][1,4]diazepin-12-yl)benzonitrile] returned a 50% inhibitory concentration (IC50) of 50 to 100 nM.

Take `CN(C)C[C@@H]1CN(c2ccc3c(c2)Cn2cc(-c4ccc(C#N)cc4)cc2-c2nccn2-3)C[C@@H]1O` [Compound 129, 4-(7-((3R,4R)-3-((dimethylamino)methyl)-4-hydroxypyrrolidin-1-yl)-9H-benzo[e]imidazo[2,1-c]pyrrolo[1,2-a][1,4]diazepin-12-yl)benzonitrile]: the IC50 was < 50 nM.

Regarding `CN(C)[C@@H]1CN(c2ccc3c(c2)Cn2cc(-c4ccc(C#N)cc4)cc2-c2nccn2-3)C[C@H]1O` [Compound 130, 4-(7-((3R,4R)-3-(dimethylamino)-4-hydroxypyrrolidin-1-yl)-9H-benzo[e]imidazo[2,1-c]pyrrolo[1,2-a][1,4]diazepin-12-yl)benzonitrile], the IC50 was < 50 nM.

On to `CN(C)[C@H]1CN(c2ccc3c(c2)Cn2cc(-c4ccc(C#N)cc4)cc2-c2nccn2-3)C[C@@H]1O` [Compound 131, 4-(7-((3S,4S)-3-(dimethylamino)-4-hydroxypyrrolidin-1-yl)-9H-benzo[e]imidazo[2,1-c]pyrrolo[1,2-a][1,4]diazepin-12-yl)benzonitrile], for which the IC50 is < 50 nM.

Take `CN(C)[C@H]1CN(c2ccc3c(c2)Cn2cc(-c4ccc(C#N)cc4)cc2-c2nccn2-3)C[C@H]1O` [Compound 133, 4-(7-((3S,4R)-3-(dimethylamino)-4-hydroxypyrrolidin-1-yl)-9H-benzo[e]imidazo[2,1-c]pyrrolo[1,2-a][1,4]diazepin-12-yl)benzonitrile]: the IC50 is < 50 nM.

In the case of `CN(C)[C@@H]1CN(c2ccc3c(c2)Cn2cc(-c4ccc(C#N)cc4)cc2-c2nccn2-3)C[C@@H]1O` [Compound 134, 4-(7-((3R,4S)-3-(dimethylamino)-4-hydroxypyrrolidin-1-yl)-9H-benzo[e]imidazo[2,1-c]pyrrolo[1,2-a][1,4]diazepin-12-yl)benzonitrile], the IC50 was < 50 nM.

With `C[C@H](CO)NC[C@@H]1CCN(c2ccc3c(c2)Cn2cc(-c4ccc(C#N)cc4)cc2-c2nccn2-3)C1` [Compound 135, 4-(7-((S)-3-((((R)-1-hydroxypropan-2-yl)amino)methyl)pyrrolidin-1-yl)-9H-benzo[e]imidazo[2,1-c]pyrrolo[1,2-a][1,4]diazepin-12-yl)benzonitrile], the IC50 is < 50 nM.

In the case of `C[C@H](CO)NC[C@H]1CCN(c2ccc3c(c2)Cn2cc(-c4ccc(C#N)cc4)cc2-c2nccn2-3)C1` [Compound 136, 4-(7-((R)-3-((((R)-1-hydroxypropan-2-yl)amino)methyl)pyrrolidin-1-yl)-9H-benzo[e]imidazo[2,1-c]pyrrolo[1,2-a][1,4]diazepin-12-yl)benzonitrile], the IC50 is < 50 nM.

Take `CN(C)C[C@H]1CN(c2ccc3c(c2)Cn2cc(-c4ccc(C#N)cc4)cc2-c2nccn2-3)C[C@@H]1O` [Compound 137, 4-(7-((3S,4R)-3-((dimethylamino)methyl)-4-hydroxypyrrolidin-1-yl)-9H-benzo[e]imidazo[2,1-c]pyrrolo[1,2-a][1,4]diazepin-12-yl)benzonitrile]: the half-maximal inhibitory concentration (IC50) is < 50 nM.

The values are drawn from patent US10562909B2, “Fused quadracyclic compounds, compositions and uses thereof” (Tabomedex Biosciences, LLC, priority 2016, dated 2020).
